{
  "source": "patent US20100189648A1",
  "about": "“INHIBITORS FOR DISRUPTING THE INTERACTION OF UBIQUITINATION RELATED ENZYMES AND USES THEREOF” (priority 2006, published 2010)",
  "format_in_all_cases": "cell-based, human",
  "key": {"[1]": {"tested_on": "Hela cells", "assay": "MTT survival assay, cervical cancer line (Hela cells)", "procedure": "(§1) The effect of the above identified compounds on anti-tumor activity in human carcinoma cells was determined by the MTT survival assay. The MTT assay is a commonly used method in evaluation of cell survival, based on the ability of viable cells to convert MTT (MTT, Sigma, Cat No. 044K5307), a soluble tetrazolium salt [3-(4,5-dimethylthuazole-2-yl)-2,5 diphenyl tetrazolium bromide], into an insoluble formazan precipitate, which is quantitated by spectrophotometry following solubilization in dimethyl sulfoxide (DMSO).\n(§2) In brief, different carcinoma cells were treated with negative control, various test articles at different concentration, and positive control (DDP), in 96-well tissue culture dishes. Each test article at different concentration is repeated 3 times.\n(§3) Different carcinoma cells were diluted with 10% FBS and RPM1640 or MEM media to a concentration of 3-5×10^4 per ml suspension. 100 microliter of cells were incubated in each well in 96-well tissue culture dishes at 37 C. The cells were incubated at 37 C on the first day. On the second day, media supernatant was removed and replaced with media and different concentration of test articles (100 microliter in each well). Three Negative control wells and three positive control (DDP) wells were also included. The 96-well plate were incubated at 37 C for another 68 hours. After 68 hours, supernatant of each well was removed. 100 microliter of 1 mg/ml MTT diluted in PBS was injected into each well. The cells were incubated at 37 C for another 4 hours. The cells were then solubilized in 150 microliter DMSO, mixed for 10 minutes and absorbance readings were taken using Microplate reader Bio-Rad Model 550 at 570 nm. IR (cell growth inhibition rate) % was calculated as (OD570 of negative control-OD570 with test article)/OD570 of negative control. IC50 (cell 50% inhibition concentration) at 95% confidence level was calculated with Bliss method."}, "[2]": {"tested_on": "MCF-7", "assay": "MTT survival assay, breast cancer cell line (MCF-7)", "settings": "for IC50: Homo sapiens", "procedure": "as §1, §2, §3"}, "[3]": {"tested_on": "A459", "assay": "MTT survival assay, lung cancer cell line (A459)", "settings": "A459", "procedure": "as §1, §2, §3"}, "[4]": {"tested_on": "SKOV3", "assay": "MTT survival assay, ovarian cancer cell line (SKOV3)", "settings": "SKOV3 (first table)", "procedure": "as §1, §2, §3"}, "[5]": {"tested_on": "SMMC-7721", "assay": "MTT survival assay, liver cancer cell line (SMMC-7721)", "settings": "SMMC-7721", "procedure": "as §1, §2, §3"}, "[6]": {"tested_on": "U251", "assay": "MTT survival assay, glioma cell line (brain tumor U251)", "settings": "U251 (first table)", "procedure": "as §1, §2, §3"}},
  "note": "Like-named read-outs stand apart in the source and are kept apart here.",
  "data": [
    {"compound": "COc1ccccc1NC(=O)CSc1nc(-c2ccccc2)nc2ccccc12", "note": "[Mol 44]", "values": [
      {"measurement": "IR (%)", "setting": "[1]; 0.07 μg/ml", "value": 19.3, "unit": "%"},
      {"measurement": "OD(A570 nm)", "setting": "[1]; 0.07 μg/ml", "value": "0.599 ± 0.109"},
      {"measurement": "IR (%)", "setting": "[1]; 0.21 μg/ml", "value": 11.8, "unit": "%"},
      {"measurement": "OD(A570 nm)", "setting": "[1]; 0.21 μg/ml", "value": "0.655 ± 0.007"},
      {"measurement": "OD(A570 nm)", "setting": "[1]; 0.62 μg/ml", "value": "0.765 ± 0.200"},
      {"measurement": "IR (%)", "setting": "[1]; 1.85 μg/ml", "value": 0.8, "unit": "%"},
      {"measurement": "OD(A570 nm)", "setting": "[1]; 1.85 μg/ml", "value": "0.737 ± 0.113"},
      {"measurement": "IR (%)", "setting": "[1]; 5.56 μg/ml", "value": 9.7, "unit": "%"},
      {"measurement": "OD(A570 nm)", "setting": "[1]; 5.56 μg/ml", "value": "0.671 ± 0.044"},
      {"measurement": "IR (%)", "setting": "[1]; 16.67 μg/ml", "value": 7.4, "unit": "%"},
      {"measurement": "OD(A570 nm)", "setting": "[1]; 16.67 μg/ml", "value": "0.688 ± 0.045"},
      {"measurement": "IR (%)", "setting": "[2]; 1.56 μg/ml", "value": 13.3, "unit": "%"},
      {"measurement": "OD(A570 nm)", "setting": "[2]; 1.56 μg/ml", "value": "0.787 ± 0.176"},
      {"measurement": "IR (%)", "setting": "[2]; 3.125 μg/ml", "value": 12.8, "unit": "%"},
      {"measurement": "OD(A570 nm)", "setting": "[2]; 3.125 μg/ml", "value": "0.811 ± 0.109"},
      {"measurement": "IR (%)", "setting": "[2]; 6.25 μg/ml", "value": 10.2, "unit": "%"},
      {"measurement": "OD(A570 nm)", "setting": "[2]; 6.25 μg/ml", "value": "0.791 ± 0.151"},
      {"measurement": "IR (%)", "setting": "[2]; 12.5 μg/ml", "value": 12.4, "unit": "%"},
      {"measurement": "OD(A570 nm)", "setting": "[2]; 12.5 μg/ml", "value": "0.791 ± 0.151"},
      {"measurement": "IR (%)", "setting": "[2]; 25 μg/ml", "value": 34.9, "unit": "%"},
      {"measurement": "OD(A570 nm)", "setting": "[2]; 25 μg/ml", "value": "0.587 ± 0.030"},
      {"measurement": "IR (%)", "setting": "[2]; 50 μg/ml", "value": 41.6, "unit": "%"},
      {"measurement": "OD(A570 nm)", "setting": "[2]; 50 μg/ml", "value": "0.527 ± 0.035"},
      {"measurement": "IC50", "setting": "[2]; MCF7, 95% confidence limits of IC50, read-out: IC50 (95% confidence level), interval", "value": "71.3 to 551", "unit": "µg/mL"},
      {"measurement": "IC50", "setting": "[2]; MCF7, Bliss method, unit not printed (concentrations in μg/ml), read-out: IC50 (95% confidence level)", "value": 145, "unit": "µg/mL"},
      {"measurement": "IR (%)", "setting": "[3]; 1.56 μg/ml", "value": 0.6, "unit": "%"},
      {"measurement": "OD(A570 nm)", "setting": "[3]; 1.56 μg/ml", "value": "0.634 ± 0.009"},
      {"measurement": "IR (%)", "setting": "[3]; 3.125 μg/ml", "value": "−23.3", "unit": "%"},
      {"measurement": "OD(A570 nm)", "setting": "[3]; 3.125 μg/ml", "value": "0.786 ± 0.048"},
      {"measurement": "IR (%)", "setting": "[3]; 6.25 μg/ml", "value": "−6.8", "unit": "%"},
      {"measurement": "OD(A570 nm)", "setting": "[3]; 6.25 μg/ml", "value": "0.680 ± 0.015"},
      {"measurement": "IR (%)", "setting": "[3]; 12.5 μg/ml", "value": 8.1, "unit": "%"},
      {"measurement": "OD(A570 nm)", "setting": "[3]; 12.5 μg/ml", "value": "0.586 ± 0.051"},
      {"measurement": "IR (%)", "setting": "[3]; 25 μg/ml", "value": 21.0, "unit": "%"},
      {"measurement": "OD(A570 nm)", "setting": "[3]; 25 μg/ml", "value": "0.504 ± 0.046"},
      {"measurement": "IR (%)", "setting": "[3]; 50 μg/ml", "value": 42.3, "unit": "%"},
      {"measurement": "OD(A570 nm)", "setting": "[3]; 50 μg/ml", "value": "0.368 ± 0.039"},
      {"measurement": "IC50", "setting": "[3]; Homo sapiens, Bliss method, unit not printed (concentrations in μg/ml), read-out: IC50 (95% confidence level)", "value": 150, "unit": "µg/mL"},
      {"measurement": "IC50", "setting": "[4]; Homo sapiens, SK-OV-3, Bliss method, unit not printed (concentrations in μg/ml), read-out: IC50 (95% confidence level)", "value": 60, "unit": "µg/mL"},
      {"measurement": "IR (%)", "setting": "[4]; 1.56 μg/ml", "value": 27.9, "unit": "%"},
      {"measurement": "OD(A570 nm)", "setting": "[4]; 1.56 μg/ml", "value": "0.505 ± 0.029"},
      {"measurement": "IR (%)", "setting": "[4]; 3.125 μg/ml", "value": 23.9, "unit": "%"},
      {"measurement": "OD(A570 nm)", "setting": "[4]; 3.125 μg/ml", "value": "0.533 ± 0.017"},
      {"measurement": "IR (%)", "setting": "[4]; 6.25 μg/ml", "value": 23.0, "unit": "%"},
      {"measurement": "OD(A570 nm)", "setting": "[4]; 6.25 μg/ml", "value": "0.539 ± 0.023"},
      {"measurement": "IR (%)", "setting": "[4]; 12.5 μg/ml", "value": 25.1, "unit": "%"},
      {"measurement": "OD(A570 nm)", "setting": "[4]; 12.5 μg/ml", "value": "0.525 ± 0.035"},
      {"measurement": "IR (%)", "setting": "[4]; 25 μg/ml", "value": 39.1, "unit": "%"},
      {"measurement": "OD(A570 nm)", "setting": "[4]; 25 μg/ml", "value": "0.426 ± 0.008"},
      {"measurement": "IR (%)", "setting": "[4]; 50 μg/ml", "value": 52.4, "unit": "%"},
      {"measurement": "OD(A570 nm)", "setting": "[4]; 50 μg/ml", "value": "0.333 ± 0.008"},
      {"measurement": "IR (%)", "setting": "[5]; 1.56 μg/ml", "value": 37.6, "unit": "%"},
      {"measurement": "OD(A570 nm)", "setting": "[5]; 1.56 μg/ml", "value": "0.275 ± 0.004"},
      {"measurement": "IR (%)", "setting": "[5]; 3.125 μg/ml", "value": 27.2, "unit": "%"},
      {"measurement": "OD(A570 nm)", "setting": "[5]; 3.125 μg/ml", "value": "0.321 ± 0.088"},
      {"measurement": "IR (%)", "setting": "[5]; 6.25 μg/ml", "value": 38.3, "unit": "%"},
      {"measurement": "OD(A570 nm)", "setting": "[5]; 6.25 μg/ml", "value": "0.272 ± 0.019"},
      {"measurement": "IR (%)", "setting": "[5]; 12.5 μg/ml", "value": 11.1, "unit": "%"},
      {"measurement": "OD(A570 nm)", "setting": "[5]; 12.5 μg/ml", "value": "0.392 ± 0.039"},
      {"measurement": "IR (%)", "setting": "[5]; 25 μg/ml", "value": 15.4, "unit": "%"},
      {"measurement": "OD(A570 nm)", "setting": "[5]; 25 μg/ml", "value": "0.373 ± 0.019"},
      {"measurement": "IR (%)", "setting": "[5]; 50 μg/ml", "value": 21.6, "unit": "%"},
      {"measurement": "OD(A570 nm)", "setting": "[5]; 50 μg/ml", "value": "0.345 ± 0.025"},
      {"measurement": "IC50", "setting": "[6]; Homo sapiens, U-251, Bliss method, unit not printed (concentrations in μg/ml), read-out: IC50 (95% confidence level)", "value": 129, "unit": "µg/mL"},
      {"measurement": "IR (%)", "setting": "[6]; 1.56 μg/ml", "value": 9.9, "unit": "%"},
      {"measurement": "OD(A570 nm)", "setting": "[6]; 1.56 μg/ml", "value": "0.790 ± 0.086"},
      {"measurement": "IR (%)", "setting": "[6]; 3.125 μg/ml", "value": 19.6, "unit": "%"},
      {"measurement": "OD(A570 nm)", "setting": "[6]; 3.125 μg/ml", "value": "0.705 ± 0.061"},
      {"measurement": "IR (%)", "setting": "[6]; 6.25 μg/ml", "value": 1.2, "unit": "%"},
      {"measurement": "OD(A570 nm)", "setting": "[6]; 6.25 μg/ml", "value": "0.866 ± 0.090"},
      {"measurement": "IR (%)", "setting": "[6]; 12.5 μg/ml", "value": 7.5, "unit": "%"},
      {"measurement": "OD(A570 nm)", "setting": "[6]; 12.5 μg/ml", "value": "0.811 ± 0.050"},
      {"measurement": "IR (%)", "setting": "[6]; 25 μg/ml", "value": 15.9, "unit": "%"},
      {"measurement": "OD(A570 nm)", "setting": "[6]; 25 μg/ml", "value": "0.737 ± 0.067"},
      {"measurement": "IR (%)", "setting": "[6]; 50 μg/ml", "value": 24.9, "unit": "%"},
      {"measurement": "OD(A570 nm)", "setting": "[6]; 50 μg/ml", "value": "0.659 ± 0.047"}
    ]}
  ]
}
